Test results from publication PMC10434152, “Effectors of the Type VI Secretion System Have the Potential to Be Modified into Antimicrobial Peptides” (Microbiology Spectrum, 2023).
Like-named read-outs stand apart in the source and are kept apart here. Residues, ends and D or L forms follow the SMILES beside them.

Legend:
E. coli ATCC 25922 = assay: MIC and MBC against laboratory strain E. coli ATCC 25922; assay type: cell-based, Escherichia coli; details: for MBC: 10 μL from MIC put into Mueller-Hinton agar medium, 24 h; for MIC: 37°C, 18 to 20 h
Experimental: (§1) MIC was measured according to Luna et al. ([25]) as described previously. Briefly, 100 μL of RPMI 1640 medium containing drugs at various concentrations was cultured with 100 μL of bacteria at 1 × 10^6 CFU/mL in 96-well plates at 37°C for 18 to 20 h. Wells containing 100 μL of bacteria at 1 × 10^6 CFU/mL and 100 μL medium were used as positive controls. Wells containing 100 μL drug and 100 μL medium were used as drug-negative controls, and wells containing 200 μL medium were used as negative controls.
(§2) The MBC, in which a combination of 10 μL from MIC was put into Mueller-Hinton agar medium and incubated for 24 h, was the first one in which […].

S. aureus ATCC 25923 = assay: MIC and MBC against laboratory strain S. aureus ATCC 25923; assay type: cell-based, Staphylococcus aureus; details: for MBC: 10 μL from MIC put into Mueller-Hinton agar medium, 24 h; for MIC: 37°C, 18 to 20 h
Experimental: as §1, §2

Bacillus subtilis NCD-2 = assay: MIC and MBC against MDR bacteria; assay type: cell-based; details: for MBC: Mueller-Hinton agar, 24 h; for MIC: RPMI 1640, 37°C, 18 to 20 h
Experimental: as §1, §2

S. aureus 1802043 = assay: MIC and MBC against MDR bacteria; assay type: cell-based; details: for MBC: Mueller-Hinton agar, 24 h; for MIC: RPMI 1640, 37°C, 18 to 20 h
Experimental: as §1, §2

S. aureus ATCC 43300 = assay: MIC and MBC against MDR bacteria; assay type: cell-based; details: for MBC: Mueller-Hinton agar, 24 h; for MIC: RPMI 1640, 37°C, 18 to 20 h
Experimental: as §1, §2

S. aureus USA200 [1] = assay: MIC and MBC against MDR bacteria; assay type: cell-based; details: for MBC: Mueller-Hinton agar, 24 h
Experimental: as §1, §2

S. aureus USA300 = assay: MIC and MBC against MDR bacteria; assay type: cell-based; details: for MBC: Mueller-Hinton agar, 24 h; for MIC: RPMI 1640, 37°C, 18 to 20 h
Experimental: as §1, §2

Streptococcus SC19 = assay: MIC and MBC against MDR bacteria; assay type: cell-based; details: for MBC: Mueller-Hinton agar, 24 h; for MIC: RPMI 1640, 37°C, 18 to 20 h
Experimental: as §1, §2

ExPEC PCN033 = assay: MIC and MBC against MDR bacteria; assay type: cell-based, Escherichia coli; details: for MBC: Mueller-Hinton agar, 24 h; for MIC: RPMI 1640, 37°C, 18 to 20 h
Experimental: as §1, §2

ExPEC RS218 = assay: MIC and MBC against MDR bacteria; assay type: cell-based, Escherichia coli; details: for MBC: Mueller-Hinton agar, 24 h; for MIC: RPMI 1640, 37°C, 18 to 20 h
Experimental: as §1, §2

S. aureus USA200 [2] = assay: Checkerboard combination with ciprofloxacin; assay type: cell-based; details: in combination with ciprofloxacin
Sheep red blood cells = assay: Hemolytic activity; assay type: cell-based; details: 4 μg/mL; 10% SRBCs, 37°C, 6 h, absorbance 540 nm, triplicate
Experimental: Sheep red blood cells (SRBCs) were used to detect hemolytic activity according to a previous method. Briefly, fresh SRBCs were washed with PBS, and a suspension of 10% SRBCs was mixed with solutions of Tsap or melittin at various concentrations. After incubation at 37°C for 6 h, the cells were removed by centrifugation at 800 × g for 10 min, and the absorbance of the supernatant at 540 nm was measured. Culture supernatant from cells that had been stimulated with 1% Triton X-100 was used as a positive control, and culture supernatant from cells that had been incubated with PBS was used as a negative control. Each measurement was taken in triplicate.

S. aureus USA200 [3] = assay: S. aureus-infected mouse model, survival; assay type: in vivo; details: BALB/c mice, n = 10, 1 × 10^7 bacteria i.p.; 20 mg/kg i.p. 6 h after infection; survival after 7 days
Experimental: To determine the drug protection rate fraction, S. aureus USA200 that had been cultured overnight was cultured in LB broth to an OD600 of 0.5, washed three times, and resuspended in PBS. Forty female BALB/c mice (18 ± 2 g each) were divided randomly into four groups. All four groups (n = 10) of mice were injected intraperitoneally with 1 × 10^7 bacteria. Six hours after infection, the animals in the four groups received 20 mg/kg Tsap-1, 20 mg/kg ciprofloxacin, 10 mg/kg Tsap-1, and 10 mg/kg ciprofloxacin or an equal amount of PBS by intraperitoneal injection. The survival rate of the mice was recorded after 7 days.

S. aureus USA200 [4] = assay: Mouse tissue load experiment; assay type: in vivo; details: BALB/c mice, five per group, 20 mg/kg i.p., tissues (liver, spleen, lung, kidney) harvested 12 h later, CFU
Experimental: For the mouse tissue load experiment, the bacteria were manipulated as described previously. Twenty female BALB/c mice (18 ± 2 g each) were divided randomly into four groups of five mice each. The animals in the four groups were injected intraperitoneally with 20 mg/kg Tsap-1 AMP, 20 mg/kg ciprofloxacin, 10 mg/kg Tsap-1, and 10 mg/kg ciprofloxacin or an equal amount of PBS. Twelve hours later, the mice were anesthetized with ether and perfused with PBS, and their livers, spleens, lungs, and kidneys were harvested. The tissues were then homogenized using a tissue grinder. Then, 10× serial dilutions of the homogenates were prepared and plated onto LB plates, and the CFUs were counted.

[5] = RPMI 1640 medium, 1 × 10^6 CFU/mL, 96-well plates
[6] = RPMI supplemented with Glycine (0.5 mM)
[7] = RPMI supplemented with L-Arginine (0.5 mM)
[8] = RPMI supplemented with L-Histidine (0.5 mM)
[9] = RPMI supplemented with L-Tryptophan (0.125 mM)
[10] = RPMI supplemented with Leucine (1 mM)
[11] = RPMI supplemented with nonessential amino acid solution
[12] = S. aureus USA200, RPMI 1640, 37°C, 18 to 20 h

| Compound | MBC (E. coli ATCC 25922) [µg/mL] | MIC (E. coli ATCC 25922; [5]) [µg/mL] | MIC (E. coli ATCC 25922; [6]) [µg/mL] | MIC (E. coli ATCC 25922; [7]) [µg/mL] | MIC (E. coli ATCC 25922; [8]) [µg/mL] | MIC (E. coli ATCC 25922; [9]) [µg/mL] | MIC (E. coli ATCC 25922; [10]) [µg/mL] | MIC (E. coli ATCC 25922; [11]) [µg/mL] | MBC (S. aureus ATCC 25923) [µg/mL] | MIC (S. aureus ATCC 25923; [5]) [µg/mL] | MIC (S. aureus ATCC 25923; [6]) [µg/mL] | MIC (S. aureus ATCC 25923; [7]) [µg/mL] | MIC (S. aureus ATCC 25923; [8]) [µg/mL] | MIC (S. aureus ATCC 25923; [9]) [µg/mL] | MIC (S. aureus ATCC 25923; [10]) [µg/mL] | MIC (S. aureus ATCC 25923; [11]) [µg/mL] | MBC (Bacillus subtilis NCD-2) [µg/mL] | MIC (Bacillus subtilis NCD-2) [µg/mL] | MBC (S. aureus 1802043) [µg/mL] | MIC (S. aureus 1802043) [µg/mL] | further results |
| --- | --- | --- | --- | --- | --- | --- | --- | --- | --- | --- | --- | --- | --- | --- | --- | --- | --- | --- | --- | --- | --- |
| CC[C@H](C)[C@H](NC(=O)[C@H](CCSC)NC(=O)[C@H](CCCCN)NC(=O)[C@H](CCCCN)NC(=O)[C@H](CC(C)C)NC(=O)[C@H](CCCCN)NC(=O)[C@H](CCCCN)NC(=O)[C@@H](N)Cc1c[nH]c2ccccc12)C(=O)N[C@@H](CCCCN)C(=O)N[C@@H](CCCCN)C(=O)O [Tsap1] (H-WKKLKKMIKK-OH) | 4 | 32 | 16 | 16 | 32 | 32 | 32 | 16 | 4 | 16 | 16 | 16 | 16 | 16 | 16 | 16 | 4 | 16 | 2 | 16 | MBC (S. aureus ATCC 43300): 4 µg/mL; MIC (S. aureus ATCC 43300): 16 µg/mL; MBC (S. aureus USA200 [1]; S. aureus USA200): 8 µg/mL; MIC (S. aureus USA200 [1]; [12]): 64 µg/mL; MBC (S. aureus USA300): 2 µg/mL; MIC (S. aureus USA300): 16 µg/mL; MBC (Streptococcus SC19): 4 µg/mL; MIC (Streptococcus SC19): 16 µg/mL; MBC (ExPEC PCN033): 32 µg/mL; MIC (ExPEC PCN033): 64 µg/mL; MBC (ExPEC RS218): 32 µg/mL; MIC (ExPEC RS218): 64 µg/mL; fractional inhibitory concentration index (FICI) (S. aureus USA200 [2]): 0.5 |
| melittin | – | – | – | – | – | – | – | – | – | – | – | – | – | – | – | – | – | – | – | – | hemolysis activity (Sheep red blood cells): complete hemolysis activity |
| O=C(O)c1cn(C2CC2)c2cc(N3CCNCC3)c(F)cc2c1=O [ciprofloxacin] | – | – | – | – | – | – | – | – | – | – | – | – | – | – | – | – | – | – | – | – | MIC (S. aureus USA200 [1]; Staphylococcus aureus, S. aureus USA200, stated in text, read-out: MIC): 16 µg/mL; protection (S. aureus USA200 [3]): 60%; reduction of bacterial loads in all tissues compared with untreated group (S. aureus USA200 [4]): about 32 times |
| CC[C@H](C)[C@H](NC(=O)[C@H](CCCCN)NC(=O)[C@H](CCSC)NC(=O)[C@@H](NC(=O)[C@H](CCSC)NC(=O)[C@H](CCCCN)NC(=O)[C@H](CCCCN)NC(=O)[C@H](CC(C)C)NC(=O)[C@H](C)NC(=O)[C@H](CCCCN)NC(=O)[C@@H](N)Cc1c[nH]c2ccccc12)[C@@H](C)CC)C(=O)O [Tsap3] (H-WKALKKMIMKI-OH) | 4 | 32 | 16 | 16 | 32 | 32 | 32 | 16 | 8 | 16 | 16 | 16 | 16 | 16 | 16 | 16 | 4 | 16 | 2 | 16 | MBC (S. aureus ATCC 43300): 4 µg/mL; MIC (S. aureus ATCC 43300): 16 µg/mL; MBC (S. aureus USA200 [1]; S. aureus USA200): 16 µg/mL; MIC (S. aureus USA200 [1]; [12]): 64 µg/mL; MBC (S. aureus USA300): 2 µg/mL; MIC (S. aureus USA300): 16 µg/mL; MBC (Streptococcus SC19): 4 µg/mL; MIC (Streptococcus SC19): 16 µg/mL; MBC (ExPEC PCN033): 32 µg/mL; MIC (ExPEC PCN033): 64 µg/mL; MBC (ExPEC RS218): 32 µg/mL; MIC (ExPEC RS218): 64 µg/mL; fractional inhibitory concentration index (FICI) (S. aureus USA200 [2]): 1.25 |
| CC[C@H](C)[C@H](NC(=O)[C@H](CCSC)NC(=O)[C@H](CCCCN)NC(=O)[C@H](CCCCN)NC(=O)[C@H](CC(C)C)NC(=O)[C@H](C)NC(=O)[C@H](CCCCN)NC(=O)[C@@H](N)Cc1c[nH]c2ccccc12)C(=O)N[C@@H](CCSC)C(=O)N[C@@H](CCCCN)C(=O)N[C@H](C(=O)O)[C@@H](C)O [Tsap2] (H-WKALKKMIMKT-OH) | 32 | 128 | 64 | 64 | 128 | 128 | 128 | 64 | 16 | 64 | 64 | 16 | 64 | 64 | 64 | 64 | 8 | 16 | 8 | 16 | MBC (S. aureus ATCC 43300): 8 µg/mL; MIC (S. aureus ATCC 43300): 16 µg/mL; MBC (S. aureus USA200 [1]; S. aureus USA200): 64 µg/mL; MIC (S. aureus USA200 [1]; [12]): 512 µg/mL; MBC (S. aureus USA300): 8 µg/mL; MIC (S. aureus USA300): 16 µg/mL; MBC (Streptococcus SC19): 8 µg/mL; MIC (Streptococcus SC19): 16 µg/mL; MBC (ExPEC PCN033): 64 µg/mL; MIC (ExPEC PCN033): 256 µg/mL; MBC (ExPEC RS218): 64 µg/mL; MIC (ExPEC RS218): 256 µg/mL; fractional inhibitory concentration index (FICI) (S. aureus USA200 [2]): 1.125 |
